Earlier results as cited in patent publication US10857230B2, “Co-therapy comprising a small molecule CSF-1R inhibitor and an agonistic antibody that specifically binds CD40 for the treatment of cancer” (Janssen Biotech, Inc., priority 2017, dated 2020).

What was measured:
[1] = system: B cells and dendritic cells; conditions: cited from earlier work
[2] = patient clinical trials; day of antibody intravenous infusion; cited from earlier work

Substance: CP-870,893: cross-linking independent agonistic CD40 antibody; VH and VL of SEQ ID NOs: 44 and 45, may be IgG2
- potency in activating B cells relative to dendritic cells [1]: about 20 fold
- most common side effects [2]: moderate CRS
